In US11156599B2, “Assay for telomere length regulators” (The Johns Hopkins University, priority 2015, dated 2021):

Tests used:
[1] = test system: de novo telomere addition on chr4 in SL13 cells; experiment: ADDIT assay (Addition of de novo initiated telomeres): modified STELA PCR and PacBio sequencing; assay type: cell-based, mouse; conditions: for de novo telomere addition compared to DMSO control: cells treated with DMSO, KU55933, Olaparib or both drugs
From the text: To examine potential mammalian genes that regulate telomere length, an assay was developed that allows visualization of telomere addition in vivo, referred here as ADDIT (Addition of de novo initiated telomeres). In a chromosomally stable CASTEiJ mouse fibroblast cell line, chromosome 4 (chr4) was modified to generate an internal 480 bp telomere ‘seed’ sequence followed by a unique I-Sce1 endonuclease cut site (FIG. 1A). The length of seed sequence was based on an early study showing that 400 bp of telomere repeats can act as functional telomeres. Using Southern blot analysis, two independent HYG-positive clones were identified, clone 1L and 1M, with a single chr4 allele correctly modified (data not shown).
To better visualize the telomere addition on the I-Sce1 cut telomere seed, the single telomere length analysis (STELA) (Baird et al., 2004, Hum Mol Genet 13, 1515-1524), a PCR-based approach that can measure telomere lengths from individual chromosome ends was modified. The STELA assay employs annealing and ligation of a linker, ‘telorette’, with TTAGGG and a unique 20-nucleotide sequence to the G-rich 3′ telomere overhang followed by PCR of the telomere from a ‘teltail’ primer and primer in the HYG sequence on the engineered chromosome (FIG. 2). The PCR product lengths will be proportional to the telomere lengths at the cleaved chr4 allele. As a control, to amplify the un-extended cut chromosome in vitro, a different linker, ‘IScerette’ was designed, which has a 4-nt homology to the 4-nt 3′ overhang created by the I-Sce1 endonuclease at the cleavage site (FIG. 2). […] This in vitro IScerette PCR product serves as a marker for the base line length of the cut, unextended telomere seed sequence.
To further verify the longer STELA PCR products represent de novo telomere addition, the PCR products were sequenced with Pacific Biosciences (PACBIO®) next generation sequencing technology. The PACBIO® platform produces longer reads and is less GC bias compared to other next generation sequencing platforms. While errors were present in the sequence as expected, the telomere repeats were easily recognizable. All of the reads from the PACBIO® were filtered and only those that had unique HYG sequence followed by telomere sequence and the ‘teltail’ primer sequence were examined. This assures that only full length of STELA PCR products were analyzed. The reads were then aligned at the junction between the HYG sequence and the telomere repeats. Wild-type TTAGGG repeats were colored orange and variant telomere repeats were colored in darker orange (FIG. 3A). Some of these variants arose due to errors in sequencing. An error rate similar to the published error rate of PACBIO® sequencing, 10-15% was observed. The errors were uniformly distributed over the reference sequence, dominated by point insertions and deletions, as expected for PACBIO® sequencing. There were three regions of divergent sequence in the original construct that are evident as darker orange stripes in the aligned reads (see for reference, in vitro IScelrette). These are small variation in TTAGGG sequence in the original SL13 clone and serve as useful internal reference points.
The original STELA protocol used for human cells (Baird et al., 2004, Hum Mol Genet 13, 1515-1524) was modified to measure telomere lengths on the de novo end of chr4 in SL13 cells. Briefly, genomic DNA was extracted using Puregene Core Kit A ^TM (Qiagen). 4 μg of genomic DNA was digested with SphI (NEB) and later diluted to 10 ng/μl in water. For the in vitro IScerette sample, genomic DNA was digested with SphI and I-SceI (NEB) prior to ligation. The ligation was carried out at 35° C. for at least 12 hrs in a volume of 10 μl containing 10 ng of digested genomic DNA, 0.9 μM of telorette linkers (mixture of telorette 1 to 6) or IScerette linker and 0.5 U of T4 DNA ligase (NEB) in 1× T4 ligation buffer. […]

[2] = test system: ATM kinase-dependent signaling pathway (Kap1-S824 phosphorylation); experiment: Western blot of phosphorylated Kap1 (ATM substrate); assay type: cell-based, mouse
From the text: Having established the robust ADDIT assay that can measure telomere elongation over one cell cycle, it was desired to examine whether the ATM kinase activity is required for telomere elongation. Two different methods were used to inhibit ATM: the ATM specific inhibitor KU55933 and siRNA knockdown. To confirm the inhibition of ATM kinase activity, the phosphorylation level of ATM substrate Kap1 as well as ATR kinase substrate Chk1 was examined by western blot. Cultured cells were pretreated with KU55933, siATM or DMSO control and later exposed to a DNA damaging reagent Camptothecin (CPT).
To detect phospho-proteins, 1× lysis buffer made of final concentration of 1× RIPA (Cell Signaling, #98016S), 1× protease inhibitor cocktail, 1× PhosSTOP™ (Roche, #4906845001) was added directly to cells on the dish after washing with cold 1× PBS. Protein concentration was measured with a BCA protein assay kit (Thermo, #23227). Typically 10 μg of protein from each sample was applied to SDS-PAGE gels, 4-15% Mini-PROTEAN TGX™ gels (Biorad, #456-1084), and transferred to nitrocellulose membranes in transfer buffer. […] Band intensities were quantified using the Odyssey™ software (LI-COR) and normalized to Actin levels. […]

SMILES | addition of de novo telomere repeats beyond the I-Sce1 site ([1]; 48 hrs doxycycline, 10 μM KU55933 or 5 nM siATM) | de novo telomere addition compared to DMSO control ([1]; different STELA primers) | Kap1-S824 phosphorylation ([2]; pretreated, later exposed to Camptothecin (CPT), western blot) | percentage of reads with telomere elongation ([1]; cells treated with Olaparib or both drugs, different STELA primers) [%] | increased level of Kap1 phosphorylation compared to DMSO-treated control cells ([2]; Olaparib treated cells) [fold]
O=c1cc(-c2cccc3c2Sc2ccccc2S3)oc(N2CCOCC2)c1 [KU55933] | fewer and significantly shorter elongation products | less de novo telomere addition compared to DMSO control | blocked Kap1 phosphorylation | – | –
O=C(c1cc(Cc2n[nH]c(=O)c3ccccc23)ccc1F)N1CCN(C(=O)C2CC2)CC1 [Olaparib] | – | significantly higher percentage of de novo telomere addition | – | 22.4 | 5
